# Assays:
# glioma (U-118 MG) = experiment: MTS metabolic activity assay, U-118 MG cells; format: cell-based; details: 72 h; for viability at 10 µM / viability at 20 µM / viability at 50 µM / viability at 100 µM / viability at 200 µM / viability at 300 µM / viability at 500 µM: Homo sapiens, U-118-MG, U118-MG, read-out: Cell metabolic activity (MTS), % of untreated control
# In short: (§1)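 Metabolic activity was measured by MTS reduction following a 72 h exposure to a range of compound concentrations. Cells had been plated 24 h beforehand at standard density, with fewer BJ cells per well. Values are percentages relative to untreated controls.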
# [1] = system: human pancreatic carcinoma (PANC-1); experiment: MTS metabolic activity assay, PANC-1 cells; format: cell-based; details: for viability at 10 µM / viability at 20 µM / viability at 50 µM / viability at 100 µM / viability at 200 µM / viability at 300 µM / viability at 500 µM: Homo sapiens, 72 h, read-out: Cell metabolic activity (MTS), % of untreated control; for viability at 10 µM: PANC-1, 10 µM; for viability at 20 µM: PANC-1, 20 µM; for viability at 50 µM: PANC-1, 50 µM; for viability at 100 µM: PANC-1, 100 µM; for viability at 200 µM: PANC-1, 200 µM; for viability at 300 µM: PANC-1, 300 µM; for viability at 500 µM: PANC-1, 500 µM; for highest increase in proliferation (cell metabolic activity): PANC-1, 72 h, range given for the named substances together
# In short: as §1
# 11β-HSD2 = target: T1, 11β-HSD2 (Homo sapiens, UniProt P80365); experiment: Inhibition of 11β-HSD2 (cortisol to cortisone, human microsomes, cortisol ELISA); format: biochemical; details: 2.5 h, 37 °C
# T1 construct: Human liver microsomes were used as a source of 11β-HSD2 enzyme; tissue XenoTech Lot No. 1710160; host or cells: human kidney microsomes, mixed gender (method text says human liver microsomes)
# T1 sequence (P80365 1-405): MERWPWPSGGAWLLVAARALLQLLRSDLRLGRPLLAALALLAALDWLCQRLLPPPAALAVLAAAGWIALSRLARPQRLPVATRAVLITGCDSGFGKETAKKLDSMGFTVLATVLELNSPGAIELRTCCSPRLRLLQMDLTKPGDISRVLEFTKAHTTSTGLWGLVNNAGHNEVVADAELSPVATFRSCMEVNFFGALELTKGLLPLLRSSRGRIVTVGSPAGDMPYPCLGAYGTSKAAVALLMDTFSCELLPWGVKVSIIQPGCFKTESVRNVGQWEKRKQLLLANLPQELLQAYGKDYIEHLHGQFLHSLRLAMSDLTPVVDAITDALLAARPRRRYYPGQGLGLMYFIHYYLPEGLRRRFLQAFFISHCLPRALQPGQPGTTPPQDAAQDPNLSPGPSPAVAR
# Procedure: The resulting solution with a final volume of 100 µL was incubated for 2.5 h at 37 °C. […] The level of unreacted cortisol was measured by a commercially available ELISA kit.
# [2] = system: skin melanoma (SK-MEL-30); experiment: MTS metabolic activity assay, SK-MEL-30 cells; format: cell-based; details: 72 h; for viability at 10 µM / viability at 20 µM / viability at 50 µM / viability at 100 µM / viability at 200 µM / viability at 300 µM / viability at 500 µM: Homo sapiens, read-out: Cell metabolic activity (MTS), % of untreated control; for viability at 10 µM: SK-MEL-30, 10 µM; for viability at 20 µM: SK-MEL-30, 20 µM; for viability at 50 µM: SK-MEL-30, 50 µM; for viability at 100 µM: SK-MEL-30, 100 µM; for viability at 200 µM: SK-MEL-30, 200 µM; for viability at 300 µM: SK-MEL-30, 300 µM; for viability at 500 µM: SK-MEL-30, 500 µM; for cell viability, decreases to: SK-MEL-30, higher concentrations, range given for the most effective substances together
# In short: as §1
# [3] = system: human breast carcinoma (MDA-MB-231); experiment: MTS metabolic activity assay, MDA-MB-231 cells; format: cell-based; details: 72 h; for viability at 10 µM / viability at 20 µM / viability at 50 µM / viability at 100 µM / viability at 200 µM / viability at 300 µM / viability at 500 µM: Homo sapiens, read-out: Cell metabolic activity (MTS), % of untreated control; for viability at 10 µM: MDA-MB-231, 10 µM; for viability at 20 µM: MDA-MB-231, 20 µM; for viability at 50 µM: MDA-MB-231, 50 µM; for viability at 100 µM: MDA-MB-231, 100 µM; for viability at 200 µM: MDA-MB-231, 200 µM; for viability at 300 µM: MDA-MB-231, 300 µM; for viability at 500 µM: MDA-MB-231, 500 µM
# In short: as §1
# [4] = system: human colon carcinoma (Caco-2); experiment: MTS metabolic activity assay, Caco-2 cells; format: cell-based; details: 72 h; for viability at 10 µM / viability at 20 µM / viability at 50 µM / viability at 100 µM / viability at 200 µM / viability at 300 µM / viability at 500 µM: Homo sapiens, read-out: Cell metabolic activity (MTS), % of untreated control; for viability at 10 µM: Caco-2, 10 µM; for viability at 20 µM: Caco-2, 20 µM; for viability at 50 µM: Caco-2, 50 µM; for viability at 100 µM: Caco-2, 100 µM; for viability at 200 µM: Caco-2, 200 µM; for viability at 300 µM: Caco-2, 300 µM; for viability at 500 µM: Caco-2, 500 µM
# In short: as §1
# 11β-HSD1 = target: T2, 11β-HSD1 (Homo sapiens, UniProt P28845); experiment: Inhibition of 11β-HSD1 (cortisone to cortisol, human liver microsomes, cortisol ELISA); format: biochemical; details: for inhibition at 10 µM: 2.5 h, 37 °C
# T2 construct: Human liver microsomes were used as a source of 11β-HSD1 enzyme; tissue XenoTech Lot No. 1410013; host or cells: pooled human liver microsomes, mixed gender
# In short: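 Human liver microsomal conversion of cortisone to cortisol, incubated 2.5 h at 37 °C and stopped with 18β-glycyrrhetinic acid. Cortisol was quantified by ELISA against inhibitor-free controls.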
# BJ cells = experiment: MTS metabolic activity assay, BJ cells; format: cell-based; details: Homo sapiens, 72 h, read-out: Cell metabolic activity (MTS), % of untreated control
# In short: as §1
# T2 sequence (P28845 whole entry): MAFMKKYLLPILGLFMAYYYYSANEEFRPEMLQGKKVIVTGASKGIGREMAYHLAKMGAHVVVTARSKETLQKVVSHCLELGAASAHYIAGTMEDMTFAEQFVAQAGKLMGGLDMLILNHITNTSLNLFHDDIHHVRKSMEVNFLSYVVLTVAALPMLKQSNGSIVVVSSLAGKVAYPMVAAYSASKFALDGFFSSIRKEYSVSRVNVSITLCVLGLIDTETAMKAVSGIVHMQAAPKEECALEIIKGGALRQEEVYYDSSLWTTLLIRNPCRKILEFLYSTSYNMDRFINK
smiles,measurement,setting,value
"O=C1N=C(NC2CCCC2)SC1c1ccccc1 (stereo not shown) [Compound 3f, 2-(cyclopentylamino)-5-phenylthiazol-4(5H)-one]",viability at 10 µM,glioma (U-118 MG),116%
same,viability at 20 µM,glioma (U-118 MG),114%
same,viability at 50 µM,glioma (U-118 MG),114%
same,viability at 100 µM,glioma (U-118 MG),115%
same,viability at 200 µM,glioma (U-118 MG),110%
same,viability at 300 µM,glioma (U-118 MG),106%
same,viability at 500 µM,glioma (U-118 MG),86.8%
same,highest increase in proliferation (cell metabolic activity),"glioma (U-118 MG); U-118 MG, range given for the named substances together",115 to 144%
same,viability at 10 µM,[1],110%
same,viability at 20 µM,[1],102%
same,viability at 50 µM,[1],117%
same,viability at 100 µM,[1],117%
same,viability at 200 µM,[1],137%
same,viability at 300 µM,[1],141%
same,viability at 500 µM,[1],141%
same,highest increase in proliferation (cell metabolic activity),[1],115 to 144%
same,inhibition at 10 µM,11β-HSD2,36.5 ± 3.07%
same,viability at 10 µM,[2],96.1%
same,viability at 20 µM,[2],98.2%
same,viability at 50 µM,[2],99.7%
same,viability at 100 µM,[2],100%
same,viability at 200 µM,[2],93.8%
same,viability at 300 µM,[2],73.2%
same,viability at 500 µM,[2],50%
same,"cell viability, decreases to",[2],20–65%
same,viability at 10 µM,[3],96.2%
same,viability at 20 µM,[3],100%
same,viability at 50 µM,[3],95.3%
same,viability at 100 µM,[3],95.9%
same,viability at 200 µM,[3],87.8%
same,viability at 300 µM,[3],79.1%
same,viability at 500 µM,[3],78.2%
same,viability at 10 µM,[4],91.3%
same,viability at 20 µM,[4],90.4%
same,viability at 50 µM,[4],93.7%
same,viability at 100 µM,[4],87.4%
same,viability at 200 µM,[4],89.7%
same,viability at 300 µM,[4],87.1%
same,viability at 500 µM,[4],75.2%
same,IC50,11β-HSD1,1100 ± 80 nM
same,inhibition at 10 µM,11β-HSD1,64.3 ± 5.07%
same,viability at 10 µM,BJ cells,107%
same,viability at 20 µM,BJ cells,102%
same,viability at 50 µM,BJ cells,102%
same,viability at 100 µM,BJ cells,106%
same,viability at 200 µM,BJ cells,105%
same,viability at 300 µM,BJ cells,106%
same,viability at 500 µM,BJ cells,96.8%
"O=C1N=C(NC2CCCC2)SC1c1ccc(Br)cc1 (stereo not shown) [Compound 3g, 2-(cyclopentylamino)-5-(4-bromophenyl)thiazol-4(5H)-one]",viability at 10 µM,glioma (U-118 MG),114%
same,viability at 20 µM,glioma (U-118 MG),110%
same,viability at 50 µM,glioma (U-118 MG),105%
same,viability at 100 µM,glioma (U-118 MG),104%
same,viability at 200 µM,glioma (U-118 MG),87.3%
same,viability at 300 µM,glioma (U-118 MG),40.6%
same,viability at 500 µM,glioma (U-118 MG),32.3%
same,viability at 10 µM,[1],116%
same,viability at 20 µM,[1],122%
same,viability at 50 µM,[1],145%
same,viability at 100 µM,[1],139%
same,viability at 200 µM,[1],94.1%
same,viability at 300 µM,[1],57.9%
same,viability at 500 µM,[1],57.2%
same,highest increase in proliferation (cell metabolic activity),[1],115 to 144%
same,inhibition at 10 µM,11β-HSD2,38.6 ± 1.39%
same,viability at 10 µM,[2],95.4%
same,viability at 20 µM,[2],97.5%
same,viability at 50 µM,[2],98.3%
same,viability at 100 µM,[2],93.1%
same,viability at 200 µM,[2],71.5%
same,viability at 300 µM,[2],29.7%
same,viability at 500 µM,[2],25.2%
same,"cell viability, decreases to",[2],20–65%
same,viability at 10 µM,[3],92.9%
same,viability at 20 µM,[3],93.6%
same,viability at 50 µM,[3],84.6%
same,viability at 100 µM,[3],82%
same,viability at 200 µM,[3],61.4%
same,viability at 300 µM,[3],43.9%
same,viability at 500 µM,[3],38%
same,"cell viability, decreases to","[3]; MDA-MB-231, higher concentrations, range given for the most effective substances together",20–65%
same,"cell viability, decreases to","[4]; Caco-2, higher concentrations, range given for the most effective substances together",20–65%
same,viability at 10 µM,[4],91.9%
same,viability at 20 µM,[4],88.8%
same,viability at 50 µM,[4],87.3%
same,viability at 100 µM,[4],80.7%
same,viability at 200 µM,[4],56.3%
same,viability at 300 µM,[4],30.1%
same,viability at 500 µM,[4],30.9%
same,IC50,11β-HSD1,180 ± 30 nM
same,inhibition at 10 µM,11β-HSD1,87 ± 2.17%
same,viability at 10 µM,BJ cells,99.7%
same,viability at 20 µM,BJ cells,97.8%
same,viability at 50 µM,BJ cells,90.8%
same,viability at 100 µM,BJ cells,88.1%
same,viability at 200 µM,BJ cells,84.2%
same,viability at 300 µM,BJ cells,57.3%
same,viability at 500 µM,BJ cells,55.4%
